“Also recorded” adds a separate entry of the source. Each block holds one molecule with its values, some of them ahead of it. Where no end group is shown, it is not given here. [ ]: non-standard residue; d: D form. sY = N[C@@H](Cc1ccc(OS(=O)(=O)O)cc1)C(=O)O
Columns and labels:
BNGR-A9 [1] = experiment: Fura-2 AM-based Ca^2+ mobilization assay, BNGR-A9; type: cell-based, Bombyx mori; conditions: for Effect of Gαq/PLC inhibitor on BmsSK-triggered Ca^2+ mobilization: FR900359 1 μM or U73122 5 μM
From the text: (§1) The entire coding region of BNGR-A9 (NM_001134272.1) was obtained by PCR and subsequently cloned into pEGFP-N1 and pCMV-Flag vectors using the primers listed in Table S1. The Flag-BNGR-A9 construct was generated for functional assays, including CRE-luciferase, calcium mobilization, and ERK phosphorylation assays, while BNGR-A9-EGFP was created for receptor visualization purposes. Additionally, for expression in the BmN cell system, the BNGR-A9 gene was inserted into the pIZT/V5-His vector. All constructs were validated by DNA sequencing.
(§2) HEK293 cells were cultured with Dulbecco’s Modified Eagle’s Medium (Gibco, NY, USA) supplied with 10% Fetal bovine serum (Gibco, NY, USA) in a 37 °C humidified incubator containing 5% CO2. BmN cells were maintained in TC 100 insect medium (AppliChem, Darmstadt, Germany) supplied with 10% Fetal bovine serum in a 28 °C incubator. Both HEK293 and BmN cells were transfected with X-tremeGENE (Roche, Mannheim, Germany) according to the manufacturer’s instruction.
To monitor the changes of intracellular calcium, Fura-2 AM (Dojindo, Kumamoto, Japan) was utilized as the calcium indicator, following the methodology outlined in a previous study. Briefly, HEK293 cells stably expressing Flag-BNGR-A9 were exposed to various concentrations of Bombyx mori neuropeptides and measured using a fluorescence spectrometer (Tecan Infinite 200 PRO). Calcium levels were determined by the ratio of fluorescence excitation at 340 nm to that at 380 nm. If necessary, cells were pre-treated with U73122, FR900359, or KT5720 for 30 min prior to the initiation of the experiment. For assays involving BmN cells expressing pIZT-BNGR-A9, the procedures were conducted at 28 °C, and HBSS was replaced with HBM (Hepes-Buffered Medium: 140 mM NaCl, 5 mM KCl, 1 mM MgCl2, 1.2 mM Na2HPO4, 5 mM NaHCO3, 10 mM glucose, and 20 mM HEPES–NaOH, CaCl2 (1 mM), pH 6.2).
(§3) Data analysis was conducted using GraphPad Prism (San Diego, CA), with results presented as mean ± SEM. Statistical significance was assessed through Student’s t-test or two-way ANOVA with multiple comparisons, with p values below 0.05 denoted as significant (*p < 0.05, **p < 0.01, ***p < 0.001). Dose–response curves were generated via non-linear curve fitting. Adobe Photoshop was used to process images, ensuring uniform brightness and contrast settings across all conditions. All images and data provided represent findings from a minimum of three independent experiments.

[2] = tested on: ERK phosphorylation in silkworm brains; experiment: ERK phosphorylation (western blot), silkworm larval brains ex vivo; set-up: species or system Bombyx mori; conditions: FR900359 1 μM, 30 min; 100 nM BmsSK; silkworm larval brains
Procedure: HEK293 cells with Flag-BNGR-A9 were exposed to 100 nM BmsSK for different durations and then lysed using RIPA buffer (Beyotime, China). For ex vivo assays, brains from 5th instar silkworm larvae were treated with BmsSK (100 nM) for 1, 2, or 8 h, either with a pre-treatment of Gαq inhibitor FR900359 for 30 min or without it. After treatment, samples were lysed, homogenized, and their protein concentrations were determined with a BCA protein kit (Takara, Japan). For western blot analysis, equal amounts of protein lysate were used. Protein expression was analyzed using specific primary antibodies: rabbit monoclonal antibodies for total and phosphorylated ERK from Cell Signaling Technology (MA, USA).

BNGR-A9 [3] = experiment: cAMP ELISA in BNGR-A9-expressing HEK293 cells; type: cell-based, Bombyx mori; conditions: 1 μM, 15 min, IBMX pretreatment (300 μM, 1 h)
Procedure: 1. Measurement of cAMP accumulation
Cells were seeded in 24-well plates and incubated overnight. Prior to treatment, cells
were pre-treated with the phosphodiesterase inhibitor IBMX (300 μM) for 1 hour.
Subsequently, cells were treated with different Bombyx neuropeptides for 15 minutes.
The reaction was terminated by removing the medium, followed by the addition of
ice-cold PBS and a single wash. Cell lysis was performed, and cAMP formation was
assessed using a competitive binding technique based on an enzyme-linked
immunosorbent assay (ELISA) (Parameter cAMP assay, R&D, Minneapolis, USA)
following the manufacturer's instructions. The results were expressed as the fold
change in cAMP concentration compared to the control concentration in the
2. Determination of Glucose of hemolymph
Silkworm larvae were anesthetized by cooling on ice, after which hemolymph was
collected using a micropipette from an incision made at the abdominal leg.
Approximately 5 mg of phenylthiourea (to achieve a final concentration of 2.5% w/v)
was added to the hemolymph in a 1.5 ml Eppendorf tube to inhibit clotting.
Hemolymph samples from 10 insects were then centrifuged at 12,000 rpm for 10
minutes at 4 °C to sediment any particulates. The glucose concentration in the
hemolymph was determined using a glucose oxidase-peroxidase kit (Shanghai […]
by stimulation with 1μM BmnsSK or BmsSK for 15 min, and the cAMP level was determined […]

BNGR-A9 [4] = experiment: IP3 ELISA in BNGR-A9-expressing HEK293 cells; type: cell-based, Bombyx mori; conditions: 1 μM, 1 h
Procedure: Figure 6 Bombyx sulfated-sulfakinin mediated activation of BNGR-A9 via Gαq signaling pathway. (A and B) Effects of Gαq inhibitor FR900359 (1 μM) on the CRE-driven luciferase activities in BNGR-A9 expressing HEK293 (A) and BmN (B) cells. BNGR-A9 stable transfected cells were pretreated with FR900359 (1 μM) for 30 min and challenged with 100 nM BmsSK for 4 h. (C) Accumulation of IP3 in HEK293 cells expressing BNGR-A9 in response to Bombyx neuropeptides was assessed. Cells were pre-treated with serum-free DMEM for 1 h, followed by stimulation with 1 μM of the indicated Bombyx neuropeptides for 1 h. The level of IP3 in the supernatant was then determined using the IP3 immunoassay detection kit. (D, E) Effects of Gαq/PLC inhibitors on Flag-BNGR-A9 mediated increase of intracellular Ca^2+ level. Flag-BNGR-A9 expressing HEK293 (D) and BmN (E) cells were pretreated with Gαq inhibitorFR900359 (1 μM), U73122 (5 μM) for 30 min, and incubated with Fura-2 AM for 30 min, followed by challenging with 100 nM BmsSK. (F, G) effects of protein kinase A (PKA) inhibitor KT5720 on BmsSK initiated Ca^2+ in Flag-BNGR-A9-expressing cells. […] After 30 min incubation with Fura-2 AM, the cells were treated with 100 nM BmsSK, and detected with a fluorescence spectrometer. […] Data were analyzed by using a Student’s t-test (*p < 0.05; **p < 0.01). […]

BNGR-A9 [5] = experiment: CRE-driven luciferase reporter assay, BNGR-A9; type: cell-based, Bombyx mori; conditions: for EC50 / Activation of BNGR-A9 (CRE-driven luciferase activity): 4 h, at least three independent experiments; for EC50: dose-response; for Activation of BNGR-A9 (CRE-driven luciferase activity): 1 μM peptide, with or without forskolin (5 μM)
From the text: as §1, §2
HEK293 and BmN cells were transfected with the different Bombyx receptors (Flag-BNGR-A9, -A24, -A32, or A33 for HEK293 cells, and pIZT-BNGR-A9, -A24, -A32, or A33 for BmN cells) along with the corresponding CRE-reporter plasmid. When cell confluence reached 90–95%, they were treated with various concentrations of Bombyx mori neuropeptides, with or without forskolin. Following a 4-h incubation period, cells were lysed, and luciferase activities were determined using a firefly luciferase kit (Beyotime, Shanghai, China).
as §3

DSK-R1 (CCKLR-17D3) = conditions: cited from earlier work
From the text: Insect SKs mediate their effects via G protein-coupled receptors (GPCRs) located on the cell surface membrane. The Drosophila SK receptor (DSK-R1, also known as CCKLR-17D3) emerged as the first cloned and characterized receptor for insect SKs, displaying high affinity for tyrosine-sulfated SK (sSK) and low affinity for nonsulfated SK (nsSK)[21]. Another receptor, CCKLR-17D1, identified in Drosophila, exclusively responds to sSKs, underscoring the critical role of the sulfated tyrosine residue in SKs for receptor interaction and activity. This specificity for sSKs was also observed in the b ...

[6] = molecular target: T1, Flag-BNGR-A9 (Bombyx mori neuropeptide G protein-coupled receptor A9) expressed in HEK293 cells (Bombyx mori) (UniProt B3XXM2)
T1 sequence: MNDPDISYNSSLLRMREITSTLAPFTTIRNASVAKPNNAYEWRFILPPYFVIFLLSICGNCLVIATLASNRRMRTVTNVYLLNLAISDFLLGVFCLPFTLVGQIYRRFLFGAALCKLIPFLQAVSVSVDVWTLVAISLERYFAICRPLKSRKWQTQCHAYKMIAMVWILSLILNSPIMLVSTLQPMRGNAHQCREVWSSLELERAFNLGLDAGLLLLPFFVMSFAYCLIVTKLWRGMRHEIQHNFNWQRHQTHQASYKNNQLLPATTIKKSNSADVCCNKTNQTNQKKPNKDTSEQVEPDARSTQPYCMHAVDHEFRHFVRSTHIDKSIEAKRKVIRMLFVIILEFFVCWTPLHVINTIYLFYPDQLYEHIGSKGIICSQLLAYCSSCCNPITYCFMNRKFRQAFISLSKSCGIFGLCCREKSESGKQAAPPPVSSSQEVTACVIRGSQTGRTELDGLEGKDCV

[7] = molecular target: T2, BNGR-A9 expressed in BmN cells (pIZT-BNGR-A9) (Bombyx mori) (UniProt B3XXM2)
T2 sequence: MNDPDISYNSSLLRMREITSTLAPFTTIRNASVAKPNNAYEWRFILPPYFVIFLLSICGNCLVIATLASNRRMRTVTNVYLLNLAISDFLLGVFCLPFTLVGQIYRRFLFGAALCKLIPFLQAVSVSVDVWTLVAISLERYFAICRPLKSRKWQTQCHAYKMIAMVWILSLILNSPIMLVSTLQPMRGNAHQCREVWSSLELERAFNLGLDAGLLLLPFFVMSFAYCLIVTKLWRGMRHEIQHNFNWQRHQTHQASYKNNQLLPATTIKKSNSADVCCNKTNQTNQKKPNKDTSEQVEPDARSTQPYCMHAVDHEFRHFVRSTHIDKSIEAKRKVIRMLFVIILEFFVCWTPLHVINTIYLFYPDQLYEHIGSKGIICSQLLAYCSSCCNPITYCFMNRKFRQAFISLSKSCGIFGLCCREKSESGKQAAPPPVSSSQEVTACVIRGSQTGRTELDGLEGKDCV

[8] = 30 min pretreatment, 100 nM BmsSK, HEK293 and BmN cells
[9] = CRE-driven luciferase, HEK293 and BmN cells

Molecule: CCCCCCOC(=O)[C@]1(O)C[C@@H]2O[C@@]1(C)n1c3ccccc3c3c4c(c5c6ccccc6n2c5c31)C(=O)NC4 [KT5720, reference compound]
- Effect of PKA inhibitor on BmsSK-induced Ca^2+ response (BNGR-A9 [1]; KT5720 10 μM, 30 min pretreatment, 100 nM BmsSK, HEK293 and BmN cells): did not affect

Molecule: COc1ccc2c(c1)CC[C@@H]1[C@@H]2CC[C@]2(C)[C@@H](NCCCCCCN3C(=O)C=CC3=O)CC[C@@H]12 [U73122, reference compound]
- Effect of Gαq/PLC inhibitor on BmsSK-triggered Ca^2+ mobilization (BNGR-A9 [1]; [8]): completely blocked

Molecule: FR900359 [reference compound]
- Effect of Gαq/PLC inhibitor on BmsSK-triggered Ca^2+ mobilization (BNGR-A9 [1]; [8]): completely blocked; also recorded: completely inhibited
- Effect of inhibitor on BmsSK-induced ERK phosphorylation [2]: inhibited

Molecule: GDDTFDD^8YGHLRF-NH2 [BmnsSK, Bombyx mori Non-sulfated-sulfakinin, synthetic; nonsulfated version of GDDTFDD^8YGHLRF-NH2]
- Ca^2+ response (BNGR-A9 [1]; 1 μM peptide, Fura-2 AM, BNGR-A9-expressing HEK293 and BmN cells, three independent experiments): triggered responses in BNGR-A9-expressing cells
- Intracellular cAMP level (BNGR-A9 [3]): remained unchanged
- Intracellular IP3 level (BNGR-A9 [4]): significant elevation
- EC50 (BNGR-A9 [5]; BmN cells stably expressing BNGR-A9): 125 nM
- Activation efficacy relative to BmsSK (BNGR-A9 [5]; [9]): less than 30%
- Agonist type at BNGR-A9 (BNGR-A9 [5]; [9]): partial agonist
- Activation of BNGR-A9 (CRE-driven luciferase activity) (BNGR-A9 [5]; HEK293 and BmN cells): could activate BNGR-A9
- EC50 (BNGR-A9 [5]; HEK293 cells stably expressing BNGR-A9): 119 nM

Molecule: neuropeptide F [reference compound]
- Activation of BNGR-A9 (CRE-driven luciferase activity) (BNGR-A9 [5]; HEK293 and BmN cells): did not significantly activate

Molecule: nsSK: nonsulfated SK, on Drosophila SK receptor (GDDTFDDYGHLRF-NH2)
- Affinity for DSK-R1 (DSK-R1 (CCKLR-17D3)): low affinity

Molecule: sSK: tyrosine-sulfated SK, on Drosophila SK receptor (GDDTFDD[sY]GHLRF-NH2; N-terminus assumed; SMILES CC(C)C[C@H](NC(=O)[C@H](Cc1c[nH]cn1)NC(=O)CNC(=O)[C@H](Cc1ccc(OS(=O)(=O)O)cc1)NC(=O)[C@H](CC(=O)O)NC(=O)[C@H](CC(=O)O)NC(=O)[C@H](Cc1ccccc1)NC(=O)[C@@H](NC(=O)[C@H](CC(=O)O)NC(=O)[C@H](CC(=O)O)NC(=O)CN)[C@@H](C)O)C(=O)N[C@@H](CCCNC(=N)N)C(=O)N[C@@H](Cc1ccccc1)C(N)=O)
- Affinity for DSK-R1 (DSK-R1 (CCKLR-17D3)): high affinity

- CRE-driven luciferase reporter, activation efficacy relative to BmsSK, HEK293 cells [6]: < 30 % of BmsSK
- CRE-driven luciferase reporter, dose-response, HEK293 cells stably expressing BNGR-A9 [6]: 119 nM
- CRE-driven luciferase reporter, activation efficacy relative to BmsSK, BmN cells [7]: < 30 % of BmsSK
- CRE-driven luciferase reporter, dose-response, BmN cells stably expressing BNGR-A9 [7]: 125 nM
Molecule: GDDTFDDYGHLRF-NH2 [Bombyx mori Non-sulfated-sulfakinin]
